Experimental data as given in patent US20040247703A1, “Composition for inhibiting glutamate-mediated neurotoxicity comprising ginsenoside Rg3 or ginsenoside Rh2” (priority 2002, published 2004).

Experiments:
cultured cortical neuron = details: literature (Kim, Y. C. et al. 1998); cited from earlier work
hippocampus nerve cells = details: literature (Lim, J. H. et al. 1997); cited from earlier work
NMDA receptor [1] = test: NMDA receptor-mediated Ca2+ influx by Ca2+-imaging technique (fura-2/AM) in cultured hippocampus nerve cells; type: cell-based, mouse; details: for % inhibition of NMDA receptor-mediated [Ca^2+]i infulx: cultured mouse hippocampus nerve cell; for NMDA receptor-mediated Ca^2+ influx inhibition, comparison of isomer forms, in words: Table 1 comparison of 20(S)-form with mixture of S-form and R-form; for inhibition effect for NMDA receptor activity, screening of pure 20(S) compounds, in words: 9 kinds of 20(S) compounds, FIG. 5
Protocol: (§1) Hippocampus nerve tissues were separated from an 18-day-old fetus to 1-day-old newborn white mouse using a dissection microscope. The tissues were treated with Leibovitz L-15 medium (Gibco, Grand Island, N.Y.) including 0.05% papain at 37° C. for 20 minutes. Then, the solution was washed with Ca^2+ or Mg^2+ free Hank's Balanced Salt Solution (Gibco, Grand Island, N.Y.) several times, and the single hippocampus nerve cell was separated mechanically by adjusting the pore size of the Pasteur pipette. The cell was cultured on a cover slip that was treated with poly-L-lysine in a concentration of 1.5×10^5 cell/ml.
(§2) The cell was cultured in a culturing solution of Neurobasla/B27 (Gibco, Grand Island, N.Y.) to which 0.5 mM L-glutamine, 25 μM glutamate, 25 μM 2-mercaptoethanol, 100 U/ml penicillin and 100 μg/ml streptomycin were added. Half of the medium was replaced twice a week with a medium having no added glutamate. Cells that were cultured for 7 to 15 days were used in the experiment.
Fura-2/AM (Molecular probes: Eugene, Oreg.) of the acetoxymethyl-ester form was used as a fluorescent Ca^2+ label. The hippocampus nerve cell was primarily incubated with 5 μM fura-2/AM and 0.001% Pluronic F-127 in HEPES buffer solution (unit mM: 150 NaCl, 5 KCl, 1 MgCl2,2 CaCl2,10 HEPES, 10 glucose, pH 7.4) at room temperature for 40 to 60 minutes and then washed with the HEPES buffer solution several times. After stabilizing the cell for 10 minutes, the change in intracellular Ca ion concentration was determined using an inverted microscope.
Specifically, the cell was exposed selectively to the excitation wavelengths (340 nm and 380 nm) from a xenon arc lamp by a computer-controlled filter wheel (Sutter Instruments, CA). Data was obtained every 2 seconds and a shutter was placed at the light-exposed portion so as to prevent any photo-toxicity on the cell. Emitter fluorescence light, which passed through a 515 nm long-pass filter, reached a cooling CCD camera. The ratios of intensity (340/380 nm) were converted to intracellular free Ca^2+ concentration ([Ca^2+]i) by digital fluorescence analyzer. Analysis of all image data was performed using Universal Imaging software (West Chester, Pa.).
Method for screening NMDA receptor inhibitor via NMDA receptor activity in a hippocampus nerve cell was performed by a Ca^2+-imaging technique using a Ca-dependent dye, fura-2/AM, as explained in Example 2.
Therefore, the system was used in the NMDA receptor inhibitor screening of ginseng components.
As stated above, the experiments of FIGS. 2A to 2C were to determine Ca^2+ influx caused by NMDA activity, when NMDA was administered to the cultured hippocampus nerve cell (5˜10 seconds), by using the Ca^2+-imaging technique. […]

NMDA receptor [2] = test: NMDA receptor-mediated membrane current by whole-cell patch-clamp in hippocampus nerve cells; type: cell-based, mouse; details: 10 μM; FIG. 2D
Protocol: as §1
as §2, with “Cells that were cultured for 7 to 15 days were used in the experiment.” left out
Whole-cell voltage-clamp recordation was carried out using a perforated patch-clamp method. […] After 10 minutes, the membrane current was determined. […]
As a solution that allows only the monovalent ion to pass the membrane to produce an electric current, Nystatin stock solution of 25 mg/ml was diluted into a concentration of 250 μg/ml and added to the internal solution. […] The membrane voltage was recorded using an EPC-9 amplifier and Pulse/Pulsefit software (HEKA, Germany). […]

[3] = tested on: white mouse hippocampus nerve cells; test: MTT assay, survival of nerve cells against cytotoxicity by NMDA; type: cell-based; details: pretreated 1 minute, NMDA 10 minutes, MTT after 24 hours; 100 μg/ml GTS, 10 μM Rg3; FIG. 3
Protocol: 3-(4,5-dimethylthiazole-2-yl)-2,5-diphenyltetrazolium bromide (MTT) assay was carried out to determine the survival rate of cells against cytotoxicity by NMDA in nerve cells. Primarily cultured white mouse hippocampus nerve cells were cultured in a 24-well plate, to which a Neurobasal/B27 (Gibco, Grand Island N.Y.) medium including 0.5 mM L-glutamine, 25 μM glutamate, 25 μM 2-mercaptoethanol, 100 U/ml penicillin and 100 μg/ml streptomycin was added for 6-14 days. The cells were pretreated with 100 μg/ml GTS and 10 μM Rg3 using a Mg^2+ free HEPES buffered solution including 1 μM glycine for 1 minute and then treated with NMDA for 10 minutes. Thereafter, the medium was exchanged with the normal culture medium. Twenty-four hours after such treatment, the cells were treated directly with a 50 μl MTT solution in phosphate buffered saline (PBS) (1 mg/ml). Four hours after MTT treatment, the supernatant was removed, and the produced formazan was resolved in 100 μl dimethylsulfoxide (DMSO). Optical density at 560 nm was read using an automated spectrophotometric plate reader.

Structure (SMILES)	glutamate-induced neurotoxicity in cultured cortical neuron, in words (cultured cortical neuron)	% inhibition of NMDA receptor-mediated [Ca^2+]i infulx (NMDA receptor [1]; 1 μM) [%]	NMDA receptor-mediated Ca^2+ influx inhibition, comparison of isomer forms, in words (NMDA receptor [1])	cell viability against neurotoxicity caused by NMDA, in words [3]	inhibition effect for NMDA receptor activity, screening of pure 20(S) compounds, in words (NMDA receptor [1])	also measured
CC(C)=CCC[C@](C)(O[C@@H]1O[C@H](CO[C@@H]2O[C@H](CO)[C@@H](O)[C@H](O)[C@H]2O)[C@@H](O)[C@H](O)[C@H]1O)[C@H]1CC[C@]2(C)[C@@H]1[C@H](O)C[C@@H]1[C@@]3(C)CC[C@H](O[C@@H]4O[C@H](CO)[C@@H](O)[C@H](O)[C@H]4O[C@@H]4O[C@H](CO)[C@@H](O)[C@H](O)[C@H]4O)C(C)(C)[C@@H]3CC[C@]12C [ginsenoside Rb1, reference compound]	inhibited					death of hippocampus nerve cells during cerebral ischemia, in words (hippocampus nerve cells): inhibits death of hippocampus nerve cells
CC(C)=CCC[C@](C)(O)[C@H]1CC[C@]2(C)[C@@H]1[C@H](O)C[C@@H]1[C@@]3(C)CC[C@H](O[C@@H]4O[C@H](CO)[C@@H](O)[C@H](O)[C@H]4O[C@@H]4O[C@H](CO)[C@@H](O)[C@H](O)[C@H]4O)C(C)(C)[C@@H]3CC[C@]12C [ginsenoside Rg3]	inhibited	31.2 ± 2.5	equivalent efficacy regardless of an S-form or R-form isomer and their mixture	effectively increase cell viability		NMDA receptor inhibition efficiency, screening of 10 ginsenosides, in words (NMDA receptor [1]; 10 μM, ginsenosides including isomers of C-20 position, FIGS. 2A and 2B): superior to those of other ginsenosides; IC50 (NMDA receptor [1]; Ca2+ influx on NMDA in cultured hippocampus nerve cell, read-out: IC50 of NMDA receptor inhibition (concentration dependence, FIG. 2C)): 3.8 µM; NMDA receptor-mediated inward current, in words (NMDA receptor [2]): inhibits the inward current
CC(C)=CCC[C@](C)(O)[C@H]1CC[C@]2(C)[C@@H]1[C@H](O)C[C@@H]1[C@@]3(C)CC[C@H](O[C@@H]4O[C@H](CO)[C@@H](O)[C@H](O)[C@H]4O[C@@H]4O[C@H](CO)[C@@H](O)[C@H](O)[C@H]4O)C(C)(C)[C@@H]3CC[C@]12C [20(S)-ginsenoside Rg3]		30.4 ± 2.3			most excellent inhibition effect	
CC(C)=CCC[C@](C)(O)[C@H]1CC[C@]2(C)[C@@H]1[C@H](O)C[C@@H]1[C@@]3(C)CC[C@H](O[C@@H]4O[C@H](CO)[C@@H](O)[C@H](O)[C@H]4O)C(C)(C)[C@@H]3CC[C@]12C [20(S)-ginsenoside Rh2]		47.1 ± 4.3	superior effect to the mixture of S-form and R-form isomers		most excellent inhibition effect	
N[C@H](CCCP(=O)(O)O)C(=O)O [D-APV, D(−)-2-amino-5-phosphono-pentanoic acid, reference compound]				effectively increase cell viability		Ca^2+ concentration ([Ca^2+]i) after NMDA application, in words (NMDA receptor [1]; FIG. 1, repeated NMDA applications): significantly decreased
CC(C)=CCC[C@](C)(O)[C@H]1CC[C@]2(C)[C@@H]1[C@H](O)C[C@@H]1[C@@]3(C)CC[C@H](O[C@@H]4O[C@H](CO)[C@@H](O)[C@H](O)[C@H]4O)C(C)(C)[C@@H]3CC[C@]12C [ginsenoside Rh2]						% inhibition of NMDA receptor-mediated [Ca^2+]i infulx (NMDA receptor [1]; 10 μM): 18.6 ± 2.7 %
